In the oligonucleotide strings, read from the 5' end, every base follows the letter of its sugar. An asterisk marks phosphorothioate; unmarked linkages are phosphodiester. Other units and linkages are bracketed, terminal groups are in braces. A string of capitals states the bases alone. e = 2'-O-(2-methoxyethyl) (MOE); [5mC] = 5-methylcytosine; d = 2'-deoxy (DNA)
Test system: human Factor 7 mRNA
Assay: Antisense inhibition of human Factor 7 mRNA in HepB3 cells, lipofectin, 50 nM, real-time RT-PCR
Format: cell-based
Details: for % Inhibition (human Factor 7 mRNA): 50 nM, ~24 h
Method in brief: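 After transfection of wells containing 4,000 cells, treatment ran for approximately 24 h. RIBOGREEN®-measured total RNA served for normalisation, and inhibition was calculated as a percentage of untreated control.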

[1] = HepB3 cells, gapmers targeted to nucleobases 14707 to 14732 of SEQ ID NO: 1 (Table 11)
[2] = HepB3 cells, lipofectin, 50 nM antisense oligonucleotide, approximately 24 hours, primer probe set RTS 2927, relative to untreated control
[3] = Example 4, HepB3 cells, lipofectin, relative to untreated control
[4] = HepB3 cells, gapmers targeted to nucleobases 11830 to 11869 of SEQ ID NO: 1 (Table 9)
[5] = Example 1, HepB3 cells, lipofectin, relative to untreated control cells
[6] = HepB3 cells, gapmers targeted to nucleobases 15188 to 15211 of SEQ ID NO: 1 (Table 13)

## 422133 (antisense eA*eG*e[5mC]*eA*eG*d[5mC]*d[5mC]*dT*dG*dA*dG*dG*d[5mC]*d[5mC]*dA*eG*e[5mC]*eA*eG*eA) [compound 422133]
[1]
  % Inhibition of human Factor 7 mRNA levels: 65%

## 422278 (antisense eG*e[5mC]*d[5mC]*dT*dG*dA*dG*dG*d[5mC]*d[5mC]*dA*dG*d[5mC]*dA*dG*eA*eT*e[5mC]*eA*e[5mC]) [compound 422278]
[1]
  % Inhibition of human Factor 7 mRNA levels: 64%

## 416437 (antisense eA*eG*eG*e[5mC]*eA*d[5mC]*dA*d[5mC]*dT*dG*dG*dT*d[5mC]*d[5mC]*d[5mC]*e[5mC]*eA*eT*e[5mC]*eA) [compound 416437]
[2]
  % Inhibition of human Factor 7 mRNA levels: 52%

## 416517 (antisense eG*eG*eG*eT*eG*d[5mC]*dA*dG*dT*dA*dG*d[5mC]*dA*dG*dA*eT*eG*e[5mC]*eA*eA) [compound 416517]
[2]
  % Inhibition of human Factor 7 mRNA levels: 23%

## 422198 (antisense eG*eT*eT*dA*d[5mC]*dT*dG*dA*dG*d[5mC]*dG*d[5mC]*dG*dG*dA*dA*dG*eA*eA*eG) [compound 422198]
[3]
  % Inhibition (human Factor 7 mRNA): 50%

## 422158 (antisense eA*eT*eG*dG*dT*d[5mC]*dA*dG*dG*dG*d[5mC]*dT*dG*dG*dT*dT*dT*eT*eG*eG) [compound 422158]
[4]
  % Inhibition of human Factor 7 mRNA levels: 49%

## 422262 (antisense e[5mC]*eT*dG*d[5mC]*dG*d[5mC]*d[5mC]*dA*d[5mC]*d[5mC]*d[5mC]*dG*d[5mC]*d[5mC]*dG*eG*e[5mC]*eT*e[5mC]*eT) [compound 422262]
HepB3 cells, gapmers targeted to nucleobases 13760 to 13789 of SEQ ID NO: 1 (Table 10)
  % Inhibition of human Factor 7 mRNA levels: 0%

## 416538 (antisense e[5mC]*eG*eT*eG*eG*dA*d[5mC]*dT*dG*dA*dT*d[5mC]*d[5mC]*dA*dA*eA*eG*eG*eA*e[5mC]) [compound 416538]
[2]
  % Inhibition of human Factor 7 mRNA levels: 46%

## 422164 (antisense eG*eA*eG*dA*d[5mC]*dA*dA*dT*dG*dG*dT*d[5mC]*dA*dG*dG*dG*d[5mC]*eT*eG*eG) [compound 422164]
[4]
  % Inhibition of human Factor 7 mRNA levels: 64%

## 407661 (antisense eT*eT*eT*eA*e[5mC]*dA*dA*dG*dA*dG*d[5mC]*dA*dG*dG*dG*eT*eG*e[5mC]*e[5mC]*eT) [compound 407661]
[5]
  % Inhibition (human Factor 7 mRNA): 47%

## 416525 (antisense eT*eA*eT*eG*eA*dG*dT*d[5mC]*d[5mC]*dT*dT*d[5mC]*dT*dA*dG*eT*eG*eA*eA*eT) [compound 416525]
[2]
  % Inhibition of human Factor 7 mRNA levels: 5%

## 416522 (antisense eG*eG*e[5mC]*eT*eG*dA*dG*dA*dA*dT*dT*dG*d[5mC]*d[5mC]*d[5mC]*eA*eG*eG*eG*e[5mC]) [compound 416522]
[2]
  % Inhibition of human Factor 7 mRNA levels: 25%

## 416473 (antisense e[5mC]*e[5mC]*e[5mC]*eT*eG*d[5mC]*d[5mC]*d[5mC]*d[5mC]*dT*d[5mC]*dT*dG*dT*d[5mC]*e[5mC]*eA*eG*e[5mC]*eG) [compound 416473]
[2]
  % Inhibition of human Factor 7 mRNA levels: 61%

## 416494 (antisense e[5mC]*eA*eG*eA*eT*dT*dT*dA*dA*dA*d[5mC]*dT*dG*d[5mC]*dA*eG*eA*eT*eG*eA) [compound 416494]
[2]
  % Inhibition of human Factor 7 mRNA levels: 0%

## 407943 (antisense eG*e[5mC]*eA*eG*eG*d[5mC]*dA*d[5mC]*d[5mC]*dA*d[5mC]*dA*dG*dG*dT*eG*eT*eG*e[5mC]*eG) [compound 407943]
[5]
  % Inhibition (human Factor 7 mRNA): 34%

## 422243 (antisense eA*eG*dG*dA*dG*dA*d[5mC]*dA*dA*dT*dG*dG*dT*d[5mC]*dA*eG*eG*eG*e[5mC]*eT) [compound 422243]
[4]
  % Inhibition of human Factor 7 mRNA levels: 62%

## 407654 (antisense e[5mC]*e[5mC]*eA*e[5mC]*eT*dG*d[5mC]*dA*dG*d[5mC]*d[5mC]*dA*dG*dG*dG*e[5mC]*e[5mC]*eT*eG*eG) [compound 407654]
[5]
  % Inhibition (human Factor 7 mRNA): 34%

## 416546 (antisense e[5mC]*e[5mC]*eA*eG*eG*d[5mC]*dT*dG*dG*dT*dT*dT*dG*dG*dA*eG*eA*eA*eA*e[5mC]) [compound 416546]
[2]
  % Inhibition of human Factor 7 mRNA levels: 21%

## 407627 (antisense eG*e[5mC]*e[5mC]*e[5mC]*eA*dG*d[5mC]*dA*d[5mC]*d[5mC]*dG*d[5mC]*dG*dA*dT*e[5mC]*eA*eG*eG*eT) [compound 407627]
[5]
  % Inhibition (human Factor 7 mRNA): 79%

## 416450 (antisense eG*eG*eT*eT*eT*dG*d[5mC]*dT*dG*dG*d[5mC]*dA*dT*dT*dT*e[5mC]*eT*eT*eT*eT) [compound 416450]
[2]
  % Inhibition of human Factor 7 mRNA levels: 49%

## 422119 (antisense eG*e[5mC]*eG*eG*eA*dA*dG*dA*dA*dG*dG*dG*dA*d[5mC]*dG*eG*eA*eA*eG*eG) [compound 422119]
[3]
  % Inhibition (human Factor 7 mRNA): 39%

## 416567 (antisense eT*eG*eG*eT*eG*dG*d[5mC]*dA*d[5mC]*d[5mC]*dA*dG*dA*dT*dG*eT*e[5mC]*eT*eG*eA) [compound 416567]
[2]
  % Inhibition of human Factor 7 mRNA levels: 2%

## 422167 (antisense eG*eA*eG*dG*dA*dG*dA*d[5mC]*dA*dA*dT*dG*dG*dT*d[5mC]*dA*dG*eG*eG*e[5mC]) [compound 422167]
[4]
  % Inhibition of human Factor 7 mRNA levels: 53%

## 407667 (antisense eG*eT*eG*eG*e[5mC]*d[5mC]*dA*dT*dG*d[5mC]*d[5mC]*d[5mC]*dT*dG*dG*eG*eT*e[5mC]*eA*eG) [compound 407667]
[5]
  % Inhibition (human Factor 7 mRNA): 71%

## 422151 (antisense eT*eG*e[5mC]*dA*dT*dG*dG*dT*dG*dA*dT*dG*d[5mC]*dT*dT*d[5mC]*dT*eG*eA*eA) [compound 422151]
[6]
  % Inhibition of human Factor 7 mRNA levels: 68%

## 422190 (antisense eG*e[5mC]*eG*d[5mC]*dG*dG*dA*dA*dG*dA*dA*dG*dG*dG*dA*d[5mC]*dG*eG*eA*eA) [compound 422190]
[3]
  % Inhibition (human Factor 7 mRNA): 12%

## 422107 (antisense eG*e[5mC]*eT*eG*eG*d[5mC]*dT*dG*dA*dG*dG*dA*dG*dA*d[5mC]*eA*eA*eT*eG*eG) [compound 422107]
[4]
  % Inhibition of human Factor 7 mRNA levels: 36%

## 407890 (antisense e[5mC]*eA*eG*eG*eG*dA*dG*d[5mC]*d[5mC]*d[5mC]*dG*dG*d[5mC]*d[5mC]*dG*e[5mC]*eA*eG*e[5mC]*eT) [compound 407890]
[5]
  % Inhibition (human Factor 7 mRNA): 60%

## 407609 (antisense eA*eG*eA*eA*eG*d[5mC]*dA*dG*dA*dT*dA*dT*dA*dG*dG*eA*e[5mC]*eT*eG*eG) [compound 407609]
[5]
  % Inhibition (human Factor 7 mRNA): 35%

## 422270 (antisense eT*eG*dA*dG*d[5mC]*dG*d[5mC]*dG*dG*dA*dA*dG*dA*dA*dG*eG*eG*eA*e[5mC]*eG) [compound 422270]
[3]
  % Inhibition (human Factor 7 mRNA): 15%

## 422283 (antisense e[5mC]*eA*dG*d[5mC]*dA*dG*d[5mC]*d[5mC]*dT*dG*dA*dG*dG*d[5mC]*d[5mC]*eA*eG*e[5mC]*eA*eG) [compound 422283]
[1]
  % Inhibition of human Factor 7 mRNA levels: 50%

## 416530 (antisense eA*eG*eG*eG*eT*dA*dG*d[5mC]*d[5mC]*dT*dT*dT*dG*d[5mC]*d[5mC]*eT*eT*eG*eG*e[5mC]) [compound 416530]
[2]
  % Inhibition of human Factor 7 mRNA levels: 35%

## 416469 (antisense eG*e[5mC]*eA*eG*e[5mC]*d[5mC]*dA*d[5mC]*dT*d[5mC]*dG*dA*dT*dG*dT*eA*e[5mC]*eT*eG*eG) [compound 416469]
[2]
  % Inhibition of human Factor 7 mRNA levels: 55%

## 407934 (antisense e[5mC]*eT*eG*eA*eA*dG*dT*dG*dA*dA*dG*dA*dT*dG*dA*eT*eA*eA*eT*eG) [compound 407934]
[5]
  % Inhibition (human Factor 7 mRNA): 45%

## 422097 (antisense eG*eA*eG*eA*e[5mC]*dA*dA*dT*dG*dG*dT*d[5mC]*dA*dG*dG*eG*e[5mC]*eT*eG*eG) [compound 422097]
[4]
  % Inhibition of human Factor 7 mRNA levels: 59%

## 416478 (antisense eG*eT*e[5mC]*eT*e[5mC]*d[5mC]*dA*dG*d[5mC]*dA*dA*dT*dG*dA*dA*eG*eG*e[5mC]*eA*eG) [compound 416478]
[2]
  % Inhibition of human Factor 7 mRNA levels: 44%

## 422134 (antisense eG*e[5mC]*eA*e[5mC]*eA*d[5mC]*dA*dT*dG*dG*dA*dG*dT*d[5mC]*dA*eG*e[5mC]*eA*eT*e[5mC]) [compound 422134]
Example 6 microwalk, nucleobases 15098 to 15122 of SEQ ID NO: 1, HepB3, lipofectin
  % Inhibition (human Factor 7 mRNA): 67%

## 422093 (antisense eA*eA*eT*eG*eG*dT*d[5mC]*dA*dG*dG*dG*d[5mC]*dT*dG*dG*eT*eT*eT*eT*eG) [compound 422093]
[4]
  % Inhibition of human Factor 7 mRNA levels: 42%

## 416552 (antisense eT*e[5mC]*eT*eG*e[5mC]*dA*d[5mC]*dA*dG*dG*dG*dT*dA*dG*dA*e[5mC]*e[5mC]*e[5mC]*eT*e[5mC]) [compound 416552]
[2]
  % Inhibition of human Factor 7 mRNA levels: 46%

## 422149 (antisense e[5mC]*eA*eT*dG*dG*dT*dG*dA*dT*dG*d[5mC]*dT*dT*d[5mC]*dT*dG*dA*eA*eT*eT) [compound 422149]
[6]
  % Inhibition of human Factor 7 mRNA levels: 61%

## 407923 (antisense e[5mC]*eA*eG*eG*eA*d[5mC]*dA*dG*dT*dT*d[5mC]*dG*dA*d[5mC]*dG*e[5mC]*eA*eG*e[5mC]*e[5mC]) [compound 407923]
[5]
  % Inhibition (human Factor 7 mRNA): 76%

## 416505 (antisense eG*e[5mC]*eA*eG*eA*dT*dT*dT*dG*d[5mC]*dA*dT*d[5mC]*dA*dG*eA*eA*eA*eA*eG) [compound 416505]
[2]
  % Inhibition of human Factor 7 mRNA levels: 45%

## 416539 (antisense eG*eA*e[5mC]*eA*eG*dA*dG*d[5mC]*d[5mC]*dT*dG*dA*dG*d[5mC]*dT*eT*eG*eG*e[5mC]*eA) [compound 416539]
[2]
  % Inhibition of human Factor 7 mRNA levels: 53%

## 416566 (antisense eG*eT*eT*eT*eG*dT*dA*dT*dG*dG*dA*dG*dA*dG*dA*e[5mC]*e[5mC]*eA*eA*eT) [compound 416566]
[2]
  % Inhibition of human Factor 7 mRNA levels: 0%

Source: patent publication US20120214862A1, “MODULATION OF FACTOR 7 EXPRESSION” (ISIS Pharmaceuticals, Inc., priority 2009, published 2012)
